Like-named read-outs stand apart in the source and are kept apart here.
Tests used:
[1] = test system: Mitochondrial Membrane Potential; assay: cells; conditions: for Specificity ratio (SRbaseline) SRMMP: against baseline cytotoxicity; for Relative effect potency REPMMP: relative to BPA
Source text: All bioassay media components and the ERα-UAS-bla GripTite and PPARγ-UAS-bla cells were obtained from Thermo Fisher Scientific (Waltham, MA, USA). AREc32 reporter gene cells based on MCF7 were provided by C. Roland Wolf (Cancer Research UK); AhR CALUX cells (H4L7.5c2 derived from H4IIe) were provided by Michael Denison (UC Davis, USA); and SH-SY5Y cells were purchased from Sigma-Aldrich.
(§1) Cell culture conditions and bioassay protocols including response detection are provided in Text S2.1–2.4 and Table S3. − Cell viability was determined from cell confluency using an IncuCyte S3 Live-Cell Analysis System (Sartorius AG, Essen, Germany) before and after exposure, except for SH-SY5Y cells (live–dead staining with Nuclear Green LcS1 and propidium iodide, Abcam, UK). For metabolic activation experiments, cell viability was assessed using the ToxBLAzer DualScreen Kit (Thermo Fisher Scientific) to capture the remaining toxicity in ERα-UAS-bla GripTite after treatment with the aCYP catalyst (details in Text S2.4).
For ARE, the concentration that triggered an induction ratio of 1.5 (ECIR1.5) was used as the benchmark value, as detailed in Text S2.5. IC10 values also served as a threshold for data analysis in all assays; only concentrations below IC10 were considered when deriving EC10 or ECIR1.5. […]
S2: Cell culture and bioassays
S2.1: Cell Culturing Conditions
All suppliers and sources are given in detail in SI-Excel S3. The bioassay media for the different assays were prepared as follows: Assay medium for ER alpha-UAS-bla GripTite (ERα) and […]
2% charcoal-stripped FBS, and 100 U/mL penicillin-streptomycin. MitoOxTox and AhR assay medium was comprised of 90% DMEM with GlutaMAX, supplemented with 10% FBS, and 100 U/mL penicillin-streptomycin. […]
(§2) S2.2: Cell Seeding and Incubation. For all bioassays, cell suspensions in the respective assay medium were dispensed into each well of 384-well plates using a MultiFlo Dispenser (Biotek, (now Agilent), Winooski, VT, U.S.). After seeding, the plates were incubated at 37° C and 5% CO₂ for […]. The final cell densities and plate types were as follows: Black poly-D-lysine […]
(§3) 6500 cells/well, ERα: 5000 cells/well. White 384-well plates with a clear bottom (Product No.
(§4) NYC, U.S.) for AhR: 3250 cells/well. Black Collagen I coated plates were used (Product No.
(§5) S2.3: Chemical Dosing and Assay Analysis Procedures. The dosing procedure and high-throughput assay workflow have been described in detail before. 9 The dosing concentrations […]
Stock solutions were then either

H4IIe (AhR CALUX) = conditions: for IC10, linear: linear model fit
Experimental: as §1
(§6) For ARE, the concentration that triggered an induction ratio of 1.5 (ECIR1.5) was used as the benchmark value, as detailed in Text S2.5. IC10 values also served as a threshold for data analysis in all assays; only concentrations below IC10 were considered when deriving EC10 or ECIR1.5.
(§7) We measured the cytotoxicity of BPA and its alternatives in HEK293H (PPARγ), HEK293T (ERα), H4IIe (AhR CALUX), MCF7 (ARE/MMP), and differentiated SH-SY5Y cells (Table S6). […]
as §2, §3, §4, §5
(§8) Stock solutions were then either added directly to the respective cell culture medium or evaporated under nitrogen, followed by replenishment with fresh medium. The final solvent content in each well was kept below 1% for methanol, 0% for acetonitrile.
(§9) Dosing plates were prepared as 11 -step serial dilutions using a Hamilton Microlab Star robotic system (Hamilton, Bonaduz, Switzerland), and chemicals were dosed in duplicates by transferring 10 μL twice from the dosing plates to the cell plates . After quantifying cell confluency as described in S2. 4., the exposed cells were incubated at 37° C and 5% CO₂ for an additional 24 h. All chemicals were tested in all assays with at least three independent […]
(§10) S2.4: Cell Viability Measurement s and bioanalytical protocols . The confluency as a measure of cell viability was determined with an IncuCyte S3 Live -Cell Analysis System (Sartorius AG, Essen, Germany). With this method the confluency of cells in a microscopy image are normalized to control wells without cells and compared before and after 24 hours of exposure.
(§11) This method has been described previously 13. […]

HEK293H (PPARγ) = conditions: for IC10, linear: linear model
Experimental: as §1, §6, §7, §2, §3, §4, §5, §8, §9, §10, §11

HEK293T (ERα) = test system: HEK293T (ERα)
Experimental: as §1, §6, §7, §2, §3, §4, §5, §8, §9, §10, §11

MCF7 (ARE/MMP) = test system: MCF7 (ARE/MMP)
Experimental: as §1, §6, §7, §2, §3, §4, §5, §8, §9, §10, §11

[2] = Arec32, read-out: EC10, linear transformed
[3] = Bioassay AhR, cytotoxicity, dosing range all
[4] = Bioassay AhR, cytotoxicity, dosing range all, log-logistic model fit
[5] = PPARγ bioassay cytotoxicity, dosing range all
[6] = PPARγ bioassay cytotoxicity, dosing range all, log-logistic model
[7] = Bioassay ARE, cytotoxicity, dosing range all, linear model fit
[8] = Bioassay ARE, cytotoxicity, dosing range all, log-logistic model fit
[9] = MMP bioassay cytotoxicity, dosing range all, linear model
[10] = MMP bioassay cytotoxicity, dosing range all, log-logistic model
[11] = Arec32, read-out: EC10, MMP (M)

`CC1(C)[C@H](O)C(C)(C)[C@H]1O` [Trans TMCD] was tested, and the EC10 ([1]; Arec32, read-out: EC10, linear) was 0.0141 M, the EC10 [1, 2] was 0.0185 M and the EC10 ([1]; Arec32, read-out: logEC10) was 0.0186 M. The “IC10, linear transformed” value (H4IIe (AhR CALUX); [3]) was 1.03E-02, the “IC10, linear” value (H4IIe (AhR CALUX); [3]) was 8.94E-03 and the logIC10 (H4IIe (AhR CALUX); [4]) was -1.99. The “IC10, linear transformed” value (HEK293H (PPARγ); [5]) was 1.52E-03, the “IC10, linear” value (HEK293H (PPARγ); [5]) was “no cytotoxicity” and the logIC10 (HEK293H (PPARγ); [6]) was “no cytotoxicity”. The “IC10, linear transformed” value (HEK293T (ERα); ERα bioassay cytotoxicity, dosing range all) was 5.38E-03, the “IC10, linear” value (HEK293T (ERα); ERα bioassay cytotoxicity, dosing range all, linear model) was “no cytotoxicity” and the logIC10 (HEK293T (ERα); ERα bioassay cytotoxicity, dosing range all, log-logistic model) was “no cytotoxicity”. The “IC10, linear” value (MCF7 (ARE/MMP); [7]) was “no cytotoxicity”, the logIC10 (MCF7 (ARE/MMP); [8]) was “no cytotoxicity” and the “IC10, linear” value (MCF7 (ARE/MMP); [9]) was “no cytotoxicity”. For the same molecule, the logIC10 (MCF7 (ARE/MMP); [10]) was “no cytotoxicity”.

Molecule `CC(C)(c1ccc(O)c(-c2ccccc2)c1)c1ccc(O)c(-c2ccccc2)c1` [BPPH, 2,2-Bis(2-hydroxy-5-biphenylyl)propane] has an EC10 ([1]; Arec32, read-out: EC10, MMP) of 1.96e-06 M, an EC10 [1, 11] of 1.96e-06 M and an EC10 [1, 2] of 1.94e-06 M. For the same molecule, the EC10 ([1]; Arec32, read-out: logEC10) was 1.95e-06 M, the “EC10, linear” value ([1]; MMP bioassay, dosing range all, linear model) was “no effect” and the “Specificity ratio (SRbaseline) SRMMP” value [1] was 2.08. For the same molecule, the “Specificity ratio (SRcytotoxicity) SRMMP” value ([1]; against experimental cytotoxicity) was 3.95, the “log(1/EC10) MMP” value ([1]; input of the ToxPi score, values up to 1.00) was 1.00 and the “Relative effect potency REPMMP” value [1] was 14.27. The “IC10, linear transformed” value (H4IIe (AhR CALUX); [3]) was 1.81E-05, the “IC10, linear” value (H4IIe (AhR CALUX); [3]) was 1.29E-05 and the logIC10 (H4IIe (AhR CALUX); [4]) was -4.74. The “Toxic ratio (TR) TRAhR” value (H4IIe (AhR CALUX); against baseline cytotoxicity) was 0.32, the “IC10, H4IIe, AhR” value (H4IIe (AhR CALUX); cytotoxicity, H4IIe (AhR assay cells)) was 12.9 µM and the “IC10, linear transformed” value (HEK293H (PPARγ); [5]) was 4.34E-06. For the same molecule, the “IC10, linear” value (HEK293H (PPARγ); [5]) was 8.25E-06, the logIC10 (HEK293H (PPARγ); [6]) was -5.16 and the “Toxic ratio (TR) TRPPARγ” value (HEK293H (PPARγ); against baseline cytotoxicity) was 0.15. For the same molecule, the “IC10, HEK293, PPARγ” value (HEK293H (PPARγ); cytotoxicity, HEK293 (PPARγ assay cells)) was 6.92 µM, the “IC10, linear transformed” value (HEK293T (ERα); Bioassay ERα, cytotoxicity, dosing range all) was 5.43E-06 and the “IC10, linear” value (HEK293T (ERα); Bioassay ERα, cytotoxicity, dosing range all, linear model fit) was “no cytotoxicity”. The logIC10 (HEK293T (ERα); Bioassay ERα, cytotoxicity, dosing range all, log-logistic model fit) was -5.08, the “Toxic ratio (TR) TRERα” value (HEK293T (ERα); against baseline cytotoxicity) was 0.13 and the “IC10, HEK293, ERα” value (HEK293T (ERα); cytotoxicity, HEK293 (ERα assay cells)) was 8.3 µM. The “IC10, linear transformed” value (MCF7 (ARE/MMP); Bioassay ARE, cytotoxicity, dosing range all) was 2.86E-06, the “IC10, linear” value (MCF7 (ARE/MMP); [7]) was 5.76E-06 and the logIC10 (MCF7 (ARE/MMP); [8]) was -5.54. The “IC10, linear transformed” value (MCF7 (ARE/MMP); MMP bioassay cytotoxicity, dosing range all) was 7.75E-06, the “IC10, linear” value (MCF7 (ARE/MMP); [9]) was 5.66E-06 and the logIC10 (MCF7 (ARE/MMP); [10]) was -5.11. For the same molecule, the “Toxic ratio (TR) TRARE” value (MCF7 (ARE/MMP); against baseline cytotoxicity, ARE readout) was 1.43, the “Toxic ratio (TR) TRMMP” value (MCF7 (ARE/MMP); against baseline cytotoxicity, MMP readout) was 0.53 and the “IC10, MCF7, ARE” value (MCF7 (ARE/MMP); cytotoxicity, MCF7, ARE readout) was 2.86 µM. For the same molecule, the “IC10, MCF7, MMP” value (MCF7 (ARE/MMP); cytotoxicity, MCF7, MMP readout) was 7.75 µM.

In the case of `O=S(=O)(c1ccc(O)cc1)c1ccccc1O` [2,4-BPS, 2,4'-Dihydroxydiphenyl sulfone], the EC10 ([1]; Arec32, read-out: EC10, MMP) is reported as 5.9e-05 M, the EC10 [1, 11] is reported as 5.9e-05 M and the EC10 ([1]; Arec32, read-out: EC10, linear) is reported as 4.26e-05 M. The EC10 [1, 2] was 5.93e-05 M, the EC10 ([1]; Arec32, read-out: logEC10) was 5.89e-05 M and the “Specificity ratio (SRbaseline) SRMMP” value [1] was 11.47. For the same molecule, the “Specificity ratio (SRcytotoxicity) SRMMP” value ([1]; human, 24 h) was 14.98, the “Relative effect potency REPMMP” value [1] was 0.47 and the “Toxic ratio (TR) TRAhR” value (H4IIe (AhR CALUX); rat, 24 h) was 3.11. The logIC10 (H4IIe (AhR CALUX); rat, 24 h) was -3.52, the “Toxic ratio (TR) TRPPARγ” value (HEK293H (PPARγ); human, 24 h) was 2.23 and the logIC10 (HEK293H (PPARγ); human, 24 h) was -3.73. The “Toxic ratio (TR) TRERα” value (HEK293T (ERα); human, 24 h) was 1.27, the logIC10 (HEK293T (ERα); human, 24 h) was -3.36 and the “Toxic ratio (TR) TRARE” value (MCF7 (ARE/MMP); human, 24 h) was 0.77. For the same molecule, the “Toxic ratio (TR) TRMMP” value (MCF7 (ARE/MMP); human, 24 h) was 0.77 and the logIC10 (MCF7 (ARE/MMP); human, 24 h) was -3.05.

From article PMC12392461, “Beyond Estrogenicity: A Comparative Assessment of Bisphenol A and Its Alternatives in In Vitro Assays Questions Safety of Replacements” (Environmental Science & Technology, 2025)
